# Experimental data taken from patent publication US12685729B2, “Use of 2,3,5-substituted thiophene compound for enhancement of radiotherapy” (Pharos iBio Co., Ltd., priority 2018, dated 2026).
# Columns and labels:
# HCT116 cell line = experiment: Tumor volume in mice transplanted with HCT116 colorectal cancer cell line after PHI-101 and radiation; type: in vivo; details: HCT116 xenograft mice; PHI-101 20 mg/kg intraperitoneally 24 h and 3 h before and 24 h after 3 Gy X-ray, repeated twice at one-week interval; combination
# Experimental: (§1) 6-week-old female Balb/c nu/nu mice (Orient Bio Inc.) and NOD SCID mice (Orient Bio Inc.) were prepared. The mice were acclimated for 1 week after purchase, and then tumor transplants were prepared. During the animal experiment, cages were replaced once a week, and drinking water and feed were often checked to ensure that they were always sufficiently supplied.
# (§2) Each of the tumor cell lines shown in Table 1 below was cultured with DMEM (Dulbecco's Modified Eagle Medium) or RPMI-1640 in a 150-mm culture dish (SPL) under 5% CO2 at 37° C. Then, each tumor cell line was diluted to a density of 1×10^6 cells/100 μl using cold DPBS buffer (Welgene), and kept cold on ice until transplantation. […]
# (§3) When each tumor cell line transplanted to the mice in Example 1-2 proliferated and the tumor begun to be visible, the lengths of the longest and shortest diameters of the tumor were measured using digital calipers (Mitutoyo). […]
# (§4) The tumor volume was measured at intervals of 2 to 4 days, and was calculated using the following equation: V=½(L×W^2) • V=volume (mm^3) • L=length [mm], the longest diameter • W=width [mm], the shortest diameter
# (§5) The measurement end time was determined based on when the average volume of the control tumor reached about 2,000 mm^3. The data of the measured tumor volume was first organized in Microsoft Excel, and plotted in GraphPad Prism. […]
# JIMT-1 cell line = experiment: Tumor volume in mice transplanted with JIMT-1 breast cancer cell line after PHI-101 and radiation; type: in vivo; details: JIMT-1 xenograft mice; PHI-101 20 mg/kg intraperitoneally 24 h and 3 h before and 24, 48, 72 h after 3 Gy 60Co γ-ray, repeated three times for 3 weeks; combination
# Experimental: as §1, §2, §3, §4, §5
# [1] = tested on: MDA-MB-468 breast cancer cell line; experiment: Clonogenic assay after PHI-101 and radiation, MDA-MB-468; type: cell-based; details: PHI-101 0.1, 0.2 or 0.5 μM, 0, 1, 2 or 3 Gy 3 hours after treatment, colonies after 10 days
# Experimental: (§6) Whether the PHI-101 compound can act as a radiotherapy sensitizer for breast cancer was evaluated using clonogenic assay.
# (§7) Specifically, each of the breast cancer cell lines shown in Table 2 below was added to DMEM medium in a 60-mm dish at a density of 300 cells, and treated with PHI-101 at a concentration of 0.1, 0.2 or 0.5 μM. As a control, DMSO was used.
# (§8) 3 hours after PHI-101 treatment, the cells were irradiated with radiation having an intensity of 0, 1, 2 or 3 Gy. Next, the cells were cultured under 5% CO2 at 37° C. for 10 days, and then the formed colonies were stained with 0.4% crystal violet. Then, the colonies were counted and the surviving fraction of the cells was calculated. The results of calculating the surviving fraction were normalized and fitted to a linear-quadratic model using Kaleidagraph version 351 (Synergy Software, Reading, PA).
# [2] = tested on: JIMT-1 breast cancer cell line; experiment: Clonogenic assay after PHI-101 and radiation, JIMT-1; type: cell-based; details: PHI-101 0.1, 0.2 or 0.5 μM, 0, 1, 2 or 3 Gy 3 hours after treatment, colonies after 10 days
# Experimental: as §6, §7, §8
# FaDu cell line = experiment: Tumor volume in mice transplanted with FaDu head and neck cancer cell line after PHI-101 and radiation; type: in vivo; details: FaDu xenograft mice; PHI-101 20 mg/kg intraperitoneally 3 h before and 24, 48, 72, 96 h after 3 Gy 60Co γ-ray, repeated three times for 3 weeks; combination
# Experimental: as §1, §2, §3, §4, §5
smiles,measurement,setting,value
"NC(=O)Nc1cc(C#Cc2cccc(F)c2)sc1C(=O)N[C@H]1CCCNC1 [PHI-101, (S)-5-((3-fluorophenyl)ethynyl)-N-(piperidin-3-yl)-3-ureido-thiophene-2-carboxamide]",tumor volume inhibited compared to when only irradiation was performed,HCT116 cell line,36.60%
same,tumor volume reduced compared to that in the control group,HCT116 cell line,49.58%
same,tumor volume inhibited compared to when only irradiation was performed,JIMT-1 cell line,20.53%
same,tumor volume reduced compared to that in the control group,JIMT-1 cell line,27.32%
same,"radiation sensitivity of the breast cancer cells (surviving fraction, linear-quadratic model)",[1],increased in a concentration-dependent manner
same,"radiation sensitivity of the breast cancer cells (surviving fraction, linear-quadratic model)",[2],increased in a concentration-dependent manner
same,tumor volume inhibited compared to when only irradiation was performed,FaDu cell line,29.16%
same,tumor volume reduced compared to that in the control group,FaDu cell line,37.50%
